Patent publication US9096560B2, “5-heterocyclylalkyl-3-hydroxy-2-phenylcyclopent-2-enones as herbicides” (Syngenta Limited, priority 2008, dated 2015)

Experiments:
Format in all cases: in vivo
[1] = system: Alopecurus myosuroides (ALOMY); test: Example A pre-emergence herbicidal test, ALOMY; details: rate 500 g/ha, evaluated 19 or 20 days after spraying
Method: (§1) Seeds of a variety of test species were sown in standard soil in pots. After cultivation for one day (pre-emergence) or after 10 days cultivation (post-emergence) under controlled conditions in a glasshouse, the plants were sprayed with an aqueous spray solution derived from the formulation of the technical active ingredient in 0.6 ml acetone and 45 ml formulation solution containing 10.6% Emulsogen EL (Registry number 61791-12-6), 42.2% N-methylpyrrolidone, 42.2% dipropylene glycol monomethyl ether (Registry number 34590-94-8) and 0.2% X-77 (Registry number 11097-66-8). The test plants were then grown in a greenhouse under optimum conditions until, 14 or 15 days later for post-emergence and 19 or 20 days for pre-emergence, the test was evaluated (100=total damage to plant; 0=no damage to plant). Alopecurus myosuroides (ALOMY), Avena fatua (AVEFA), Lolium perenne (LOLPE), Setaria faberi (SETFA), Digitaria sanguinalis (DIGSA), Echinochloa crus-galli (ECHCG) Pre-Emergence Activity

Avena fatua (AVEFA) [2] = test: Example A pre-emergence herbicidal test, AVEFA; details: rate 500 g/ha, evaluated 19 or 20 days after spraying
Method: as §1

Lolium perenne (LOLPE) [3] = test: Example A pre-emergence herbicidal test, LOLPE; details: rate 500 g/ha, evaluated 19 or 20 days after spraying
Method: as §1

Setaria faberi (SETFA) [4] = test: Example A pre-emergence herbicidal test, SETFA; details: rate 500 g/ha, evaluated 19 or 20 days after spraying
Method: as §1

[5] = system: Digitaria sanguinalis (DIGSA); test: Example A pre-emergence herbicidal test, DIGSA; details: rate 500 g/ha, evaluated 19 or 20 days after spraying
Method: as §1

[6] = system: Echinochloa crus-galli (ECHCG); test: Example A pre-emergence herbicidal test, ECHCG; details: rate 500 g/ha, evaluated 19 or 20 days after spraying
Method: as §1

[7] = system: Alopecurus myosuroides (ALOMY); test: Example A post-emergence herbicidal test, ALOMY; details: rate 125 g/ha, evaluated 14 or 15 days after spraying
Method: as §1, with “Post-Emergence” for “Pre-Emergence”

Avena fatua (AVEFA) [8] = test: Example A post-emergence herbicidal test, AVEFA; details: rate 125 g/ha, evaluated 14 or 15 days after spraying
Method: as §1, with “Post-Emergence” for “Pre-Emergence”

Lolium perenne (LOLPE) [9] = test: Example A post-emergence herbicidal test, LOLPE; details: rate 125 g/ha, evaluated 14 or 15 days after spraying
Method: as §1, with “Post-Emergence” for “Pre-Emergence”

Setaria faberi (SETFA) [10] = test: Example A post-emergence herbicidal test, SETFA; details: rate 125 g/ha, evaluated 14 or 15 days after spraying
Method: as §1, with “Post-Emergence” for “Pre-Emergence”

[11] = system: Digitaria sanguinalis (DIGSA); test: Example A post-emergence herbicidal test, DIGSA; details: rate 125 g/ha, evaluated 14 or 15 days after spraying
Method: as §1, with “Post-Emergence” for “Pre-Emergence”

[12] = system: Echinochloa crus-galli (ECHCG); test: Example A post-emergence herbicidal test, ECHCG; details: rate 125 g/ha, evaluated 14 or 15 days after spraying
Method: as §1, with “Post-Emergence” for “Pre-Emergence”

CCc1cc(C)cc(CC)c1C1C(=O)CC(CC2CCOCC2)C1=O (stereo not drawn) [Compound T1]
Pre-Emergence Activity ALOMY (100=total damage to plant; 0=no damage to plant) [1]: 100 | Pre-Emergence Activity AVEFA (100=total damage to plant; 0=no damage to plant) (Avena fatua (AVEFA) [2]): 90 | Pre-Emergence Activity LOLPE (100=total damage to plant; 0=no damage to plant) (Lolium perenne (LOLPE) [3]): 100 | Pre-Emergence Activity SETFA (100=total damage to plant; 0=no damage to plant) (Setaria faberi (SETFA) [4]): 70 | Pre-Emergence Activity DIGSA (100=total damage to plant; 0=no damage to plant) [5]: 100 | Pre-Emergence Activity ECHCG (100=total damage to plant; 0=no damage to plant) [6]: 80 | Post-Emergence Activity ALOMY (100=total damage to plant; 0=no damage to plant) [7]: 100 | Post-Emergence Activity AVEFA (100=total damage to plant; 0=no damage to plant) (Avena fatua (AVEFA) [8]): 90 | Post-Emergence Activity LOLPE (100=total damage to plant; 0=no damage to plant) (Lolium perenne (LOLPE) [9]): 100 | Post-Emergence Activity SETFA (100=total damage to plant; 0=no damage to plant) (Setaria faberi (SETFA) [10]): 70 | Post-Emergence Activity DIGSA (100=total damage to plant; 0=no damage to plant) [11]: 100 | Post-Emergence Activity ECHCG (100=total damage to plant; 0=no damage to plant) [12]: 100
